Results from patent US6004957A, “Sulfonamide inhibitors of aspartyl protease” (Vertex Pharmaceuticals, Incorporated, priority 1998, dated 1999).

Tested on: HIVIIIb in CCRM-CEM cells
Assay: Anti-viral potency in CCRM-CEM cells acutely infected with HIVIIIb (method of Meek et al.), extracellular p24 antigen
Assay type: cell-based, HIV-1
Conditions: Human immunodeficiency virus 1, HIV replication, Table VIII, read-out: IC90 Range
Source text: As discussed above, the novel compounds of the present invention are excellent ligands for aspartyl proteases, particularly HIV-1 and HIV-2 proteases. Accordingly, these compounds are capable of targeting and inhibiting late stage events in HIV replication, i.e., the processing of the viral polyproteins by HIV encoded proteases. […] Because aspartyl protease is essential for the production of mature virions, inhibition of that processing effectively blocks the spread of virus by inhibiting the production of infectious virions, particularly from chronically infected cells. […] Other anti-viral assays have confirmed the potency of these compounds.
Compounds of formula I were tested for their antiviral potency in several virological assays. In the first assay, the compounds were added as a solution in dimethylsulfoxide (DMSO) to a test cell culture of CCRM-CEM cells, a strain of CD4^+ human T-cell lymphoma cells, previously acutely infected with HIVIIIb using standard protocols (see Meek, T. D. et al., "Inhibition of HIV-1 protease in infected T-lymphocytes by synthetic peptide analogues", Nature, 343, p. 90 (1990). Preferred compounds are those which are able to inhibit 90% of viral infectivity at a concentration of 1 μM or less. More preferred compounds are those which are able to inhibit 90% of viral infectivity at a concentration of 100 nM or less.
The effect of the compounds on inhibiting the replication of the virus was measured by determining the HIV extracellular p24 antigen concentration using a commercial enzyme immunoassay (obtained from Coulter Corporation, Hialeah, Fla.).

Compound | IC90 [µM]
CC(C)CN(C[C@@H](O)[C@H](Cc1ccccc1)NC(=O)OC(C)(C)C)S(=O)(=O)c1ccc2nonc2c1 [Compound 64] | 1 to 10
CC(C)CN(C[C@@H](O)[C@H](Cc1ccccc1)NC(=O)OCc1ccccc1)S(=O)(=O)c1ccc2nonc2c1 [Compound 65] | 1 to 10
CC(C)CN(C[C@@H](O)[C@H](Cc1ccccc1)NC(=O)O[C@H]1CCOC1)S(=O)(=O)c1ccc2nonc2c1 [Compound 66] | 0.101 to 1
C=CCOC(=O)N[C@@H](Cc1ccccc1)[C@H](O)CN(CC(C)C)S(=O)(=O)c1ccc(Cl)c(Cl)c1 [Compound 81] | 1 to 10
CC(C)CN(C[C@@H](O)[C@H](Cc1ccccc1)NC(=O)OCc1cccnc1)S(=O)(=O)c1ccc2nonc2c1 [Compound 82] | 1 to 10
CC(C)(C)OC(=O)N[C@@H](Cc1ccccc1)[C@H](O)CN(CC1CCCC1)S(=O)(=O)c1ccc(Cl)c(Cl)c1 [Compound 84] | 1 to 10
CC(C)CN(C[C@@H](O)[C@H](Cc1ccccc1)NC(=O)OCC1CCOC1)S(=O)(=O)c1ccc(Cl)c(Cl)c1 (stereo partly shown) [Compound 85] | 1 to 10
CC(=O)Nc1ccc(S(=O)(=O)N(CC(C)C)C[C@@H](O)[C@H](Cc2ccccc2)NC(=O)OC2CCOC2)cc1 (stereo partly drawn) [Compound 86, N-(4-(((2 syn,3S)-2-Hydroxy-4-phenyl-3-((R)-tetrahydrofuran-3-yloxycarbonylamino)-butyl)-isobutyl-sulfamoyl-phenyl)-acetamide and N-(4-(((2 syn,3S)-2-Hydroxy-4-phenyl-3-((S)-tetrahydrofuran-3-yloxycarbonylamino)-butyl)-isobutyl-sulfamoyl)-phenyl)-acetamide] | 0.101 to 1
CC(=O)Nc1cc(S(=O)(=O)N(CC(C)C)C[C@@H](O)[C@H](Cc2ccccc2)NC(=O)O[C@H]2CCOC2)ccc1F [Compound 88, N-(2-Fluoro-5-(((2 syn,3S)-2-hydroxy-4-phenyl-3-((S)-tetrahydrofuran-3-yloxycarbonylamino)-butyl)-isobutyl-sulfamoyl)-phenyl)-acetamide] | 0.101 to 1
CCCOC(=O)N[C@@H](Cc1ccccc1)[C@H](O)CN(CC(C)C)S(=O)(=O)c1ccc(Cl)c(Cl)c1 [Compound 89] | 1 to 10
CC(=O)Nc1cccc(S(=O)(=O)N(CC(C)C)C[C@@H](O)[C@H](Cc2ccccc2)NC(=O)O[C@H]2CCOC2)c1 [Compound 91, N-(3-(((2 syn,3S)-2-Hydroxy-4-phenyl-3-((S)-tetrahydrofuran-3-yloxycarbonylamino)-butyl)-isobutyl-sulfamoyl)-phenyl)-acetamide] | 0.101 to 1
CC(C)CN(C[C@@H](O)[C@H](Cc1ccccc1)NC(=O)O[C@@H]1CCOC1)S(=O)(=O)c1ccc(F)cc1 [Compound 93, 4-Fluoro-N-((2 syn,3S)-2-hydroxy-4-phenyl-3-((R)-tetrahydrofuran-3-yloxycarbonylamino)-butyl)-N-isobutyl-benzenesulfonamide] | 0.101 to 1
CC(=O)Nc1ccc(S(=O)(=O)N(CC(C)C)C[C@@H](O)[C@H](Cc2ccccc2)NC(=O)O[C@@H]2CCOC2)cc1 [Compound 94, N-(4-(((syn)-2-Hydroxy-(S)-4-phenyl-3-((tetrahydro-furan-(R)-3-yl)-oxycarbonylamino)-butyl)-isobutyl-sulfamoyl)-phenyl)-acetamide] | 0.101 to 1
CC(C)CN(C[C@@H](O)[C@H](Cc1ccccc1)NC(=O)O[C@H]1CCOC1)S(=O)(=O)c1cc(Cl)c(Cl)s1 [Compound 95] | 1 to 10
CC(C)CN(C[C@@H](O)[C@H](Cc1ccccc1)NC(=O)OCc1cccnc1)S(=O)(=O)c1ccc(F)cc1 [Compound 98, 4-Fluoro-N-((2 syn,3S)-2-hydroxy-4-phenyl-3-(pyridin-3-yl-methoxycarbonylamino)-butyl)-N-isobutyl-benzenesulfonamide] | 0.101 to 1
CC(C)CN(C[C@@H](O)[C@H](Cc1ccccc1)NC(=O)O[C@H]1CCOC1)S(=O)(=O)c1ccc(Cl)cc1 [Compound 99, 4-Chloro-N-((2 syn,3S)-2-hydroxy-4-phenyl-3-((S)-tetrahydrofuran-3-yloxycarbonylamino)-butyl)-isobutyl-benzenesulfonamide] | 0.101 to 1
